Test results from US20220289794A1, “SYNTHETIC ANTIMICROBIAL PEPTIDES” (priority 2019, published 2022).
≈ marks a conversion by molar mass, not a printed value. Where two headings read alike, the source gives them in different places.

Columns and labels:
[1] = system: Pseudomonas aeruginosa (PSA, ATCC 27883); assay: Synergy checkerboard assay (FIC index); format: cell-based; settings: Pseudomonas aeruginosa (ATCC 27883), antibiotic alone
[2] = system: Escherichia coli (E. Coli, ATCC 25922); settings: Escherichia coli (ATCC 25922); antibiotic alone
[3] = system: Pseudomonas aeruginosa (ATCC 27883); assay: microbe, parasite or virus in culture
[4] = system: Escherichia coli (ATCC 25922); assay: microbe, parasite or virus in culture
[5] = system: Methicillin-resistant Staphylococcus aureus MRSA (ATCC BAA-1556); assay: microbe, parasite or virus in culture; settings: ATCCBAA1556|MRSA, 24 h
[6] = system: Pseudomonas aeruginosa (PSA, ATCC 27883); assay: microbe, parasite or virus in culture; settings: ATCC27883, 24 h
[7] = system: Escherichia coli (E. Coli, ATCC 25922); assay: microbe, parasite or virus in culture; settings: ATCC25922, 24 h
[8] = system: Enterococcus faecium ATCC 27270; assay: microbe, parasite or virus in culture; settings: ATCC27270
[9] = system: Enterococcus faecium ATCC 700221; assay: microbe, parasite or virus in culture; settings: ATCC700221
[10] = system: Staphylococcus aureus ATCC 29213; assay: microbe, parasite or virus in culture; settings: ATCC29213
[11] = system: Enterococcus faecalis ATCC 29212; assay: microbe, parasite or virus in culture; settings: ATCC29212
[12] = system: Enterococcus faecalis ATCC 51575; assay: microbe, parasite or virus in culture; settings: ATCC51575
[13] = system: Streptococcus pneumoniae ATCC 49619; assay: microbe, parasite or virus in culture; settings: ATCC49619
[14] = system: Streptococcus pneumoniae ATCC 51938; assay: microbe, parasite or virus in culture; settings: ATCC51938
[15] = system: MRSA; assay: microbe, parasite or virus in culture; settings: Staphylococcus aureus
[16] = system: KPC; assay: microbe, parasite or virus in culture; settings: Klebsiella pneumoniae, ATCCBAA1705, read-out: MIC Klebsiella pneumoniae (ATCC BAA-1705)
[17] = system: PSA; assay: microbe, parasite or virus in culture; settings: Pseudomonas aeruginosa, ATCC27883, read-out: MIC Pseudomonas aeruginosa (ATCC 27883)
[18] = system: E. coli; assay: microbe, parasite or virus in culture; settings: Escherichia coli, ATCC25922, read-out: MIC Escherichia coli (ATCC 25922)
[19] = system: Bacillus subtilis (ATCC-6633); assay: microbe, parasite or virus in culture; settings: ATCC6633
[20] = system: Bacillus cereus (ATCC-13061); assay: microbe, parasite or virus in culture; settings: ATCC13061
[21] = system: Clostridium difficile (ATCC 700057); assay: MIC determination, broth microdilution (CLSI); format: cell-based
[22] = system: Clostridium difficile (NAP1/027); assay: MIC determination, broth microdilution (CLSI); format: cell-based
[23] = system: Pseudomonas aeruginosa (PSA, ATCC 27883); settings: antibiotics alone and PHY-MIX (1:1 w/w)
[24] = system: Escherichia coli (E. Coli, ATCC 25922); settings: antibiotics alone and PHY-MIX (1:1 w/w)
[25] = system: Klebsiella pneumoniae (KPC, ATCC BAA-1705); settings: Klebsiella pneumoniae (ATCC BAA-1705); antibiotic alone
[26] = system: Staphylococcus aureus ATCC 33592 (MRSA) biofilm; settings: all other concentrations ([…] to 0.001 μg/mL)
Procedure: (§1) Bacteria. The bacterial strains employed in these assays were obtained from the American Type Culture Collection (ATCC). Each strain was propagated as recommended by the ATCC and each strain was stored as a frozen glycerol stock at −80° C.
(§2) Bacterial Propagation. […] Following the incubation, the culture was diluted to an optical density 625 nm (OD625) of 0.1 in cation adjusted Mueller Hinton Broth (CAMHB), which is equivalent to 1×10^8 CFU/mL. The culture was further diluted to 1×10^6 CFU/mL which was used for the assay.
(§3) Determination of the Temporal Effects of SPL7013 Addition to Inhibit Biofilm Formation. Each strain of bacteria was adjusted to a concentration of 1×10^6 CFU/mL and added to a 96-well flat-bottomed plate in a volume of 100 mL. One-hundred microliters (100 mL) of each compound at 10 concentrations was added in triplicate wells. The cultures were incubated for 24 hours at 37° C. under the appropriate growth conditions for each organism. Following the incubation, the media was removed, and the formed biofilms were fixed for 1 hour at 60° C. Two-hundred microliters (200 mL) of 0.06% crystal violet was added to the wells for 5 to 10 minutes and the wells were then gently washed three times with deionized H2O to remove the crystal violet. Following crystal violet staining 200 mL of 70% ethanol was added to the wells.

[27] = system: KPC; settings: Table 37; peptides and peptide-capped gold nanoparticles
[28] = system: PSA; settings: Table 37; peptides and peptide-capped gold nanoparticles
[29] = system: E. coli; settings: Table 37; peptides and peptide-capped gold nanoparticles
[30] = system: Methicillin-resistant Staphylococcus aureus MRSA (ATCC BAA-1556); assay: microbe, parasite or virus in culture; settings: read-out: MIC MRSA (ATCC BAA-1556)
[31] = system: Klebsiella pneumoniae (ATCC BAA-1705); assay: microbe, parasite or virus in culture
[32] = system: Klebsiella pneumoniae (KPC, ATCC BAA-1705); assay: microbe, parasite or virus in culture; settings: ATCCBAA1705, 24 h
[33] = system: Klebsiella pneumoniae (KPC, ATCC BAA-1705); assay: microbe, parasite or virus in culture; settings: ATCCBAA1705, 24 h, read-out: MIC of antibiotic
[34] = system: Staphylococcus aureus ATCC 33592 (MRSA) biofilm; assay: microbe, parasite or virus in culture; settings: read-out: inhibition of biofilm formation
Procedure: as §1, §2, §3

[35] = ATCC27883, read-out: PSA (ATCC 27883 MIC)
[36] = ATCC25922, read-out: E. coli (ATCC 25922) MIC
[37] = ATCCBAA1556 / MRSA, read-out: MIC MRSA (ATCC BAA-1556)

## C[C@@H](O)[C@H]1C(=O)N2C(C(=O)O)=C(S[C@@H]3CN[C@H](C(=O)N(C)C)C3)[C@H](C)[C@H]12 [Meropenem]
[1]
  MIC of antibiotic: 1 µg/mL
[1]; Table 26
  MIC of antibiotic: 1 µg/mL
[1]; Table 27
  antibiotic MIC: 1 µg/mL
[2]
  MIC of antibiotic: 1 µg/mL
[3]; [35]
  MIC: 1 µg/mL (≈ 2.61 µM)
[4]; [36]
  MIC: 1 µg/mL (≈ 2.61 µM)
[5]; read-out: MRSA (ATCC BAA-1556) MIC, Table 29, [R6W4] (IFX-318), antibiotics alone and PHY-MIX (1:1 w/w)
  MIC: 2 µg/mL (≈ 5.22 µM)
[5]; read-out: MRSA (ATCC BAA-1556) MIC, Table 30, [R5W4K] (IFX-315), antibiotics alone and PHY-MIX (1:1 w/w)
  MIC: 2 µg/mL (≈ 5.22 µM)
[5]; read-out: MRSA (ATCC BAA-1556) MIC, Table 31, [R5W4] (IFX-301), antibiotics alone and PHY-MIX (1:1 w/w)
  MIC: 2 µg/mL (≈ 5.22 µM)
[5]; read-out: MRSA (ATCC BAA-1556) MIC, Table 32, meropenem, IFX-315, their conjugate and Phy-Mix 1:1
  MIC: 2 µg/mL (≈ 5.22 µM)
[6]; read-out: Pseudomonas aeruginosa (ATCC 27883) MIC, Table 28, IFX-031, antibiotics alone and PHY-MIX (1:1 w/w)
  MIC: 1 µg/mL (≈ 2.61 µM)
[6]; read-out: Pseudomonas aeruginosa (ATCC 27883) MIC, Table 29, [R6W4] (IFX-318), antibiotics alone and PHY-MIX (1:1 w/w)
  MIC: 1 µg/mL (≈ 2.61 µM)
[6]; read-out: Pseudomonas aeruginosa (ATCC 27883) MIC, Table 30, [R5W4K] (IFX-315), antibiotics alone and PHY-MIX (1:1 w/w)
  MIC: 1 µg/mL (≈ 2.61 µM)
[6]; read-out: Pseudomonas aeruginosa (ATCC 27883) MIC, Table 31, [R5W4] (IFX-301), antibiotics alone and PHY-MIX (1:1 w/w)
  MIC: 1 µg/mL (≈ 2.61 µM)
[6]; read-out: Pseudomonas aeruginosa (ATCC 27883) MIC, Table 32, meropenem, IFX-315, their conjugate and Phy-Mix 1:1
  MIC: 1 µg/mL (≈ 2.61 µM)
[7]; read-out: Escherichia coli (ATCC 25922) MIC, Table 29, [R6W4] (IFX-318), antibiotics alone and PHY-MIX (1:1 w/w)
  MIC: 1 µg/mL (≈ 2.61 µM)
[7]; read-out: Escherichia coli (ATCC 25922) MIC, Table 30, [R5W4K] (IFX-315), antibiotics alone and PHY-MIX (1:1 w/w)
  MIC: 1 µg/mL (≈ 2.61 µM)
[7]; read-out: Escherichia coli (ATCC 25922) MIC, Table 31, [R5W4] (IFX-301), antibiotics alone and PHY-MIX (1:1 w/w)
  MIC: 1 µg/mL (≈ 2.61 µM)
[7]; read-out: Escherichia coli (ATCC 25922) MIC, Table 32, meropenem, IFX-315, their conjugate and Phy-Mix 1:1
  MIC: 1 µg/mL (≈ 2.61 µM)
[8]
  MIC: 0.5 µg/mL (≈ 1.3 µM)
[9]
  MIC: 64 µg/mL (≈ 167 µM)
[10]
  MIC: 0.25 µg/mL (≈ 0.652 µM)
[11]
  MIC: 2 µg/mL (≈ 5.22 µM)
[12]
  MIC: 8 µg/mL (≈ 20.9 µM)
[13]
  MIC: 0.25 µg/mL (≈ 0.652 µM)
[14]
  MIC: 0.25 µg/mL (≈ 0.652 µM)
[15]; [37]
  MIC: 4 µg/mL (≈ 10.4 µM)
[15]; MRSA
  MIC: 2 µg/mL (≈ 5.22 µM)
[16]
  MIC: 8 µg/mL (≈ 20.9 µM)
[17]
  MIC: 0.5 µg/mL (≈ 1.3 µM)
[18]
  MIC: 0.125 µg/mL (≈ 0.326 µM)
[19]
  MIC: 0.25 µg/mL (≈ 0.652 µM)
[20]
  MIC: 4 µg/mL (≈ 10.4 µM)

## CN[C@H](CC(C)C)C(=O)N[C@H]1C(=O)N[C@@H](CC(N)=O)C(=O)N[C@H]2C(=O)N[C@H]3C(=O)N[C@H](C(=O)N[C@H](C(=O)O)c4cc(O)cc(O)c4-c4cc3ccc4O)[C@H](O)c3ccc(c(Cl)c3)Oc3cc2cc(c3O[C@@H]2O[C@H](CO)[C@@H](O)[C@H](O)[C@H]2O[C@H]2C[C@](C)(N)[C@H](O)[C@H](C)O2)Oc2ccc(cc2Cl)[C@H]1O [Vancomycin, reference compound]
[1]; ATCC27883, 24 h, Table 25
  MIC: > 256 µg/mL
[21]
  MIC90: 0.63 µg/mL (≈ 0.435 µM)
  MIC95: 0.63 µg/mL (≈ 0.435 µM)
  MIC99: 0.63 µg/mL (≈ 0.435 µM)
[22]
  MIC90: 0.31 µg/mL (≈ 0.214 µM)
  MIC95: 0.31 µg/mL (≈ 0.214 µM)
  MIC99: 0.31 µg/mL (≈ 0.214 µM)
[23]; Table 29, [R6W4] (IFX-318)
  Pseudomonas aeruginosa (ATCC 27883) MIC: >64 µg/mL
[23]; Table 30, [R5W4K] (IFX-315)
  Pseudomonas aeruginosa (ATCC 27883) MIC: >64 µg/mL
[23]; Table 31, [R5W4] (IFX-301)
  Pseudomonas aeruginosa (ATCC 27883) MIC: >64 µg/mL
[24]; Table 29, [R6W4] (IFX-318)
  Escherichia coli (ATCC 25922) MIC: >64 µg/mL
[24]; Table 30, [R5W4K] (IFX-315)
  Escherichia coli (ATCC 25922) MIC: >64 µg/mL
[24]; Table 31, [R5W4] (IFX-301)
  Escherichia coli (ATCC 25922) MIC: >64 µg/mL
[25]
  MIC of antibiotic: > 256 µg/mL
[26]
  inhibition of biofilm formation: approximately 50%
[27]
  MIC Klebsiella pneumoniae (ATCC BAA-1705): No effect
[28]
  MIC Pseudomonas aeruginosa (ATCC 27883): No effect
[29]
  MIC Escherichia coli (ATCC 25922): No effect
[30]
  MIC: 0.5 µg/mL (≈ 0.345 µM)
[3]; ATCC27883, read-out: MIC P. aeruginosa ATCC 27883
  MIC: > 256 µg/mL
[3]; [35]
  MIC: > 512 µg/mL
[4]; [36]
  MIC: > 512 µg/mL
[4]; ATCC25922, read-out: MIC E. coli (ATCC 25922)
  MIC: > 256 µg/mL
[31]; ATCCBAA1705, read-out: KPC (ATCC BAA-1705) MIC
  MIC: > 512 µg/mL
[31]; ATCCBAA1705, read-out: MIC K. pneumoniae (ATCC BAA-1705)
  MIC: > 256 µg/mL
[6]; read-out: Pseudomonas aeruginosa (ATCC 27883) MIC
  MIC: > 64 µg/mL
[32]; read-out: Klebsiella pneumoniae (ATCC BAA-1705) MIC, Table 28, IFX-031, antibiotics alone and PHY-MIX (1:1 w/w)
  MIC: > 256 µg/mL
[32]; read-out: Klebsiella pneumoniae (ATCC BAA-1705) MIC, Table 29, [R6W4] (IFX-318), antibiotics alone and PHY-MIX (1:1 w/w)
  MIC: > 256 µg/mL
[32]; read-out: Klebsiella pneumoniae (ATCC BAA-1705) MIC, Table 30, [R5W4K] (IFX-315), antibiotics alone and PHY-MIX (1:1 w/w)
  MIC: > 256 µg/mL
[32]; read-out: Klebsiella pneumoniae (ATCC BAA-1705) MIC, Table 31, [R5W4] (IFX-301), antibiotics alone and PHY-MIX (1:1 w/w)
  MIC: > 64 µg/mL
[7]; read-out: Escherichia coli (ATCC 25922) MIC
  MIC: > 64 µg/mL
[33]
  MIC: > 256 µg/mL
[34]
  inhibition at 5000 µg/mL: ~97%
[15]; [37]
  MIC: 0.5 µg/mL (≈ 0.345 µM)
